SMILES strings stand for the structures. Active and inactive are the calls of the source. How the calls were made is not given here.

The subject of the data set is CCRIS mutagenicity, Ames/micronucleus/aberration tests. The experiment in a line: CCRIS mutagenicity studies.
Setting [1] is: Test System: AMES SALMONELLA TYPHIMURIUM, Strain/Indicator: TA98, Metabolic Activation: HAMSTER, LIVER, S-9, AROCLOR 1254 (10%), Method: PREINCUBATION
Setting [2] is: Test System: AMES SALMONELLA TYPHIMURIUM, Strain/Indicator: TA98, Metabolic Activation: NONE, Method: PREINCUBATION
The mark [3] stands for this setting: Test System: AMES SALMONELLA TYPHIMURIUM, Strain/Indicator: TA98, Metabolic Activation: RAT, LIVER, S-9, AROCLOR 1254 (10%), Method: PREINCUBATION
The mark [4] stands for this setting: Test System: AMES SALMONELLA TYPHIMURIUM, Strain/Indicator: TA100, Metabolic Activation: HAMSTER, LIVER, S-9, AROCLOR 1254 (10%), Method: PREINCUBATION
The mark [5] stands for this setting: Test System: AMES SALMONELLA TYPHIMURIUM, Strain/Indicator: TA100, Metabolic Activation: NONE, Method: PREINCUBATION
Setting [6] is: Test System: AMES SALMONELLA TYPHIMURIUM, Strain/Indicator: TA100, Metabolic Activation: NONE, Method: STANDARD PLATE.
The mark [7] stands for this setting: Test System: AMES SALMONELLA TYPHIMURIUM, Strain/Indicator: TA100, Metabolic Activation: RAT, LIVER, S-9, AROCLOR 1254 (10%), Method: PREINCUBATION
Setting [8] is: Test System: AMES SALMONELLA TYPHIMURIUM, Strain/Indicator: TA1535, Metabolic Activation: HAMSTER, LIVER, S-9, AROCLOR 1254 (10%), Method: PREINCUBATION
[9] abbreviates: Test System: AMES SALMONELLA TYPHIMURIUM, Strain/Indicator: TA1535, Metabolic Activation: NONE, Method: PREINCUBATION
Where [10] appears, read: Test System: AMES SALMONELLA TYPHIMURIUM, Strain/Indicator: TA1535, Metabolic Activation: NONE, Method: STANDARD PLATE.
[11] abbreviates: Test System: AMES SALMONELLA TYPHIMURIUM, Strain/Indicator: TA1535, Metabolic Activation: RAT, LIVER, S-9, AROCLOR 1254 (10%), Method: PREINCUBATION
The mark [12] stands for this setting: Test System: AMES SALMONELLA TYPHIMURIUM, Strain/Indicator: TA1537, Metabolic Activation: HAMSTER, LIVER, S-9, AROCLOR 1254 (10%), Method: PREINCUBATION
Setting [13] is: Test System: AMES SALMONELLA TYPHIMURIUM, Strain/Indicator: TA1537, Metabolic Activation: NONE, Method: PREINCUBATION
[14] abbreviates: Test System: AMES SALMONELLA TYPHIMURIUM, Strain/Indicator: TA1537, Metabolic Activation: RAT, LIVER, S-9, AROCLOR 1254 (10%), Method: PREINCUBATION
The mark [15] stands for this setting: Test System: AMES SALMONELLA TYPHIMURIUM, Strain/Indicator: TA98, Metabolic Activation: RAT, LIVER, S-9, PCB, Method: PREINCUBATION
[16] abbreviates: Test System: AMES SALMONELLA TYPHIMURIUM, Strain/Indicator: TA100, Metabolic Activation: RAT, LIVER, S-9, PCB, Method: PREINCUBATION

With `Cc1ccc(C(C)C)c(O)c1`, the mutagenic call is “inactive; negative; toxic at 520 um” (End Point: IN VITRO CHROMOSOMAL ABERRATIONS, Test System: SYRIAN HAMSTER EMBRYO (SHE) CELLS, Metabolic Activation: NONE); “active; positive (structural changes)” (End Point: IN VITRO CHROMOSOMAL ABERRATIONS, Test System: SYRIAN HAMSTER EMBRYO (SHE) CELLS, Metabolic Activation: RAT, LIVER, S-9); “active; positive” (End Point: In vitro micronucleus, Test System: Human peripheral lymphocytes); “active; positive (structural and numerical changes)” (End Point: In vivo chromosomal aberrations, Test System: Bone marrow cells, Species: Rat, Strain/Sex: Sprague-Dawley/Male, Route: Intraperitoneal); “active; positive (structural changes)” (End Point: In vivo chromosomal aberrations, Test System: Human peripheral lymphocytes); “inactive; negative” (Test System: AMES SALMONELLA TYPHIMURIUM, Strain/Indicator: TA97, Metabolic Activation: NONE, Method: PREINCUBATION (20 MIN)). Further, the mutagenic call (Test System: AMES SALMONELLA TYPHIMURIUM, Strain/Indicator: TA97, Metabolic Activation: S-9, Method: PREINCUBATION (20 MIN)) is “inactive; negative”; the mutagenic call (Test System: AMES SALMONELLA TYPHIMURIUM, Strain/Indicator: TA98, Metabolic Activation: NONE, Method: PREINCUBATION (20 MIN)) was “inactive; negative”; the mutagenic call (Test System: AMES SALMONELLA TYPHIMURIUM, Strain/Indicator: TA98, Metabolic Activation: S-9, Method: PREINCUBATION (20 MIN)) is “inactive; negative”; the mutagenic call (Test System: AMES SALMONELLA TYPHIMURIUM, Strain/Indicator: TA100, Metabolic Activation: NONE, Method: PREINCUBATION (20 MIN)) was “inactive; negative”; the mutagenic call (Test System: AMES SALMONELLA TYPHIMURIUM, Strain/Indicator: TA100, Metabolic Activation: S-9, Method: PREINCUBATION (20 MIN)) is “inactive; negative”.
As for `CC(C)CC(C)Nc1ccc(Nc2ccccc2)cc1` (configuration not stated), the mutagenic call reads like this: (Test System: AMES SALMONELLA TYPHIMURIUM, Strain/Indicator: TA97, Metabolic Activation: MOUSE, LIVER, S-9, DELOR 103, Method: STANDARD PLATE) “inactive; negative”; (Test System: AMES SALMONELLA TYPHIMURIUM, Strain/Indicator: TA97, Metabolic Activation: NONE, Method: STANDARD PLATE) “inactive; negative”; under setting [1], “inactive; negative”; (Test System: AMES SALMONELLA TYPHIMURIUM, Strain/Indicator: TA98, Metabolic Activation: MOUSE, LIVER, S-9, DELOR 103, Method: STANDARD PLATE) “inactive; negative”; under setting [2], “inactive; negative”; (Test System: AMES SALMONELLA TYPHIMURIUM, Strain/Indicator: TA98, Metabolic Activation: NONE, Method: STANDARD PLATE) “inactive; negative”. Moreover, the mutagenic call reads like this: under setting [3], “inactive; negative”; under setting [4], “inactive; negative”; (Test System: AMES SALMONELLA TYPHIMURIUM, Strain/Indicator: TA100, Metabolic Activation: MOUSE, LIVER, S-9, DELOR 103, Method: STANDARD PLATE) “inactive; negative”; under setting [5], “inactive; negative”; under setting [6], “inactive; negative”; under setting [7], “inactive; negative”. Also, the mutagenic call runs as follows: under setting [8], “inactive; negative”; under setting [9], “inactive; negative”; under setting [10], “inactive; negative”; under setting [11], “inactive; negative”; under setting [12], “inactive; negative”; under setting [13], “inactive; negative”. The mutagenic call runs as follows: under setting [14], “inactive; negative”; (Test System: AMES SALMONELLA TYPHIMURIUM, Strain/Indicator: TA1538, Metabolic Activation: NONE, Method: STANDARD PLATE) “inactive; negative”.
For `CCCCCN(CCCCC)CCCCC`, the mutagenic call is “inactive; negative” under setting [1]; “inactive; negative” under setting [2]; “inactive; negative” under setting [3]; “inactive; negative” under setting [4]; “inactive; negative” under setting [5]; “inactive; negative” under setting [7]. The mutagenic call was “inactive; negative” under setting [8]; “inactive; negative” under setting [9]; “inactive; negative” under setting [11]; “inactive; negative” under setting [12]; “inactive; negative” under setting [13]; “inactive; negative” under setting [14].
For the compound `CN(C)CCCN`, the mutagenic call was “inactive; negative” under setting [1]; “inactive; negative” under setting [2]; “inactive; negative” under setting [3]; “inactive; negative” under setting [15]; “inactive; negative” under setting [4]; “inactive; negative” under setting [5]. Further, the mutagenic call is, setting by setting: under setting [7], “inactive; negative”; under setting [16], “inactive; negative”; under setting [8], “inactive; negative”; under setting [9], “inactive; negative”; under setting [11], “inactive; negative”; under setting [12], “inactive; negative”. In addition, the mutagenic call is “inactive; negative” under setting [13] and “inactive; negative” under setting [14].
As for `O=C(CBr)c1ccc(-c2ccccc2)cc1`, the mutagenic call is, setting by setting: under setting [2], “inactive; negative”; under setting [15], “inactive; negative”; under setting [16], “inactive; negative”; (Test System: E. COLI, Strain/Indicator: WP2 UVRA, Metabolic Activation: NONE, Method: PREINCUBATION) “inactive; negative”.
On to `OCC(Cl)CCl` (configuration not stated), for which the mutagenic call is, setting by setting: (Test System: AMES SALMONELLA TYPHIMURIUM, Strain/Indicator: TA97, Metabolic Activation: HAMSTER, LIVER, S-9, AROCLOR 1254 (10%), Method: PREINCUBATION) “active; positive”; (Test System: AMES SALMONELLA TYPHIMURIUM, Strain/Indicator: TA97, Metabolic Activation: NONE, Method: PREINCUBATION) “active; positive”; (Test System: AMES SALMONELLA TYPHIMURIUM, Strain/Indicator: TA97, Metabolic Activation: RAT, LIVER, S-9, AROCLOR 1254 (10%), Method: PREINCUBATION) “active; positive”; under setting [1], “active; positive”; under setting [3], “active; positive”; under setting [4], “active; positive”. The mutagenic call is “active; positive” under setting [5]; “active; positive” under setting [6]; “active; positive” under setting [7]; “active; positive” (Test System: AMES SALMONELLA TYPHIMURIUM, Strain/Indicator: TA100, Metabolic Activation: RAT, LIVER, S-9, AROCLOR 1254, Method: STANDARD PLATE); “active; positive” (Test System: AMES SALMONELLA TYPHIMURIUM, Strain/Indicator: TA100, Metabolic Activation: RAT, LIVER, S-9, KANECHLOR 500, Method: PREINCUBATION); “active; positive” under setting [8]. In addition, the mutagenic call under setting [9] is “active; positive”; the mutagenic call under setting [10] was “active; positive”; the mutagenic call under setting [11] is “active; positive”; the mutagenic call (Test System: AMES SALMONELLA TYPHIMURIUM, Strain/Indicator: TA1535, Metabolic Activation: RAT, LIVER, S-9, AROCLOR 1254, Method: STANDARD PLATE) was “active; positive”.

(Values after PubChem BioAssay AID1259407 (Chemical Carcinogenesis Research Information System (CCRIS), 2018).)
